The text below walks through data of PMC5874719, “A π-Halogen Bond of Dibenzofuranones with the Gatekeeper Phe113 in Human Protein Kinase CK2 Leads to Potent Tight Binding Inhibitors” (Pharmaceuticals, 2018).

The subject of one assay is ARPE19 cells. The experiment in a line: MTT viability assay. In kind it is cell-based, human. The note with it: 24 h; for cell viability reduced to: ARPE19, 50 µM (highest concentration), DMSO as reference. As to the method: (§1) Protein kinase CK2 is essential for the survival of cells. Therefore, we tested the impact of the CK2 inhibitors on the viability of cells in both lines. The inhibitors were applied in increasing concentrations up to 50 µM to growing cell cultures and the viability was analyzed by a MTT assay after 24 h of treatment. The effect of the compounds on the growth of the normal ARPE19 cells was rather moderate (Figure 5A). 5 had no impact on ARPE19 cell viability. 4b reduced the viability to 70% in its highest concentration and 4a exerted the strongest influence by reducing the ratio of viable cells to 40% when applying a 50 µM dose. In contrast LNCaP cells were strongly impaired by the treatment with the dibenzofurans (Figure 5B): Using 10 µM of the different inhibitors, we only observed an effect with 4b. However, increasing the concentration to 20, 25 and 50 µM exerted a drastic impact on the viability of LNCaP cells. With 50 µM 4b a viability rate of final 5% was obtained, whereas 4a and 5 reduced the viability to 30 to 35%. Thus, the inhibitors in particular affected the viability of LNCaP carcinoma cells, but not of normal retinal pigment epithelium cells. […] Even after 48 h of growth under CK2 inhibition ARPE19 cells appeared rather unaffected by the treatment. […]
(§2) Figure 5 Effects of dibenzofuran inhibitors on cell viability. […] Cell viability was determined using the MTT assay after 24 h of incubation. […]
(§3) ARPE19 cells (ATCC Number: CRL-2302), retinal pigment epithelia (RPE) cells, were maintained at 37 °C and 5% CO2 in Dulbecco’s modified Eagles medium (DMEM) supplemented with 2 mM L-glutamine, 1 mM gentamicin and 10% fetal calf serum (FCS) at 37 °C in an atmosphere enriched with 5% CO2. […] For the evaluation of cell morphology ARPE19 and LNCaP cells were analysed with bright field microscopy using a Axiovert microscope from Zeiss (Jena, Germany).
(§4) Cell proliferation and viability was determined using a colorimetric MTT-based assay (MTT: 3-[4,5-dimethylthiazol-2-yl]-2,5-diphenyl tetrazolium bromide, Sigma-Aldrich, Deisenhofen, Germany) as described in [72]. […]
In general terms: Formazan colour is commonly taken as a measure of viable cells.

For assay [1], the system named is caspases 3 and 7 in LNCaP cells. The assay is described as follows: Caspase-Glo 3/7 assay. In kind it is cell-based, human. The note with it: for caspase 3/7 activity, maximum obtained: 25 or 50 µM, 24 or 48 h; for caspase 3/7 activity: 50 µM, 48 h. An excerpt: Reducing the activity of CK2 by the inhibitors is supposed to overcome the antiapoptotic effect of the enzyme and cells are induced to undergo apoptosis. […] In consequence, we analyzed in the next experiments whether the cells were killed by apoptosis. Hallmark of apoptosis is the activation of the key effector caspases 3 and 7 which ends in the cleavage of poly (ADP ribose) polymerase PARP1. The full-length PARP1 is cleaved by the caspases to an 89 and a 24 kDa fragment. These events of late apoptotic signaling were analyzed in ARPE19 and LNCaP cells grown in the presence and in the absence of dibenzofurans. Inhibitor concentrations of 25 and 50 µM were used and were applied for 24 and 48 h. In cell lysates of LNCaP and ARPE19 cells the activity of caspases 3 and 7 was determined subsequently by a luminescence based assay (Figure 6A).
(A) ARPE19 or LNCaP cells were treated with DMSO as control (0 μM) or with 25 or 50 μM 4b, 4a or 5 for 24 or 48 h. Activity of caspases 3 and 7 was determined using the luminescent Caspase-Glo® 3/7 assay according to the technical bulletin of the manufacturer. Median relative light units (RLU) + standard deviation from at least three independent experiments are shown in the bar graph. (B) Cells were treated as described before. 75 μg cell extract was separated in a 10% SDS polyacrylamide gel and analyzed in a Western blot analysis with a rabbit polyclonal antibody against PARP1. + is a positive control for PARP cleavage.
The activity of the apoptotic key effector caspases 3 and 7 in cell extracts was determined using the Caspase-Glo 3/7 assay according to the protocol of the manufacturer (Promega, Mannheim, Germany).

The subject of a further assay is LNCaP cells. The assay is described as follows: MTT viability assay. Type of assay: cell-based. The note with it: Homo sapiens, 24 h, DMSO as reference, read-out: cell viability. As to the method: as §1, §2, §3, §4

Molecules are shown by their SMILES.

The term viability denotes a read-out of living cells in per cent, often relative to untreated cells. As to `COc1ccc(N/C=C2\C(=O)CCc3c2oc2cc(Cl)c(O)c(Cl)c32)cc1` [4a, 7,9-dichloro-1,2-dihydro-8-hydroxy-4-[(4-methoxyphenylamino)methylene]dibenzo[b,d]furan-3(2H)-one], the “cell viability reduced to” value in the assay on ARPE19 cells is reported as 40%. Further, the “caspase 3/7 activity, maximum obtained” value in assay [1] is 17,000 RLU. In addition, the viability at 50 µM in the assay with LNCaP cells was in the range of 30 to 35%.
Take `COc1ccc(/N=C/c2c(O)ccc3c2oc2cc(Cl)c(O)c(Cl)c23)cc1` [compound 5, (E)-1,3-dichloro-6-[(4-methoxyphenylimino)methyl]dibenzo[b,d]furan-2,7-diol]: the “impact on cell viability” value in the assay with ARPE19 cells (ARPE19, up to 50 µM) was “no impact”. In addition, in assay [1], the “caspase 3/7 activity” value is listed as > 50,000 RLU and the “caspase 3/7 activity, maximum obtained” value is on record as 55,000 RLU. Besides, in the assay on LNCaP cells, the viability at 50 µM is 30 to 35%.
Take `Cc1ccc(NC=C2C(=O)CCc3c2oc2c(Cl)c(Cl)c(O)cc32)cc1` [4b, 6,7-dichloro-1,4-dihydro-8-hydroxy-4-[(4-methylphenylamino)methylene]dibenzo[b,d]furan-3(2H)-one]: the “cell viability reduced to” value in the assay on ARPE19 cells is given as 70%. In addition, the “caspase 3/7 activity” value in assay [1] is given as > 50,000 RLU. In the assay with LNCaP cells, the viability at 50 µM worked out at 5%.
